Legend:
[1] = tested on: methicillin sensitive S. aureus ATCC 25923 (MSSA); test: MIC assay, broth microdilution, MSSA; type: cell-based; conditions: Staphylococcus aureus, 24 h
Experimental: (3) methicillin sensitive S. aureus ATCC 25923 (MSSA). This strain was obtained from ATCC and was used as a control.
The strains were processed according to procedures recommended by ATCC, or procedures that are routinely used. Single colonies of each organism were picked for purification to generate pure working cultures. Prior to each experiment each strain was subcultured on a fresh Mueller-Hinton agar plate (MHA).
Inocula for the MIC assays were prepared by transferring a tiny portion of one colony from a MHA plate to 2 ml of Mueller-Hinton broth (MHB) such that the estimated cell density was about 10^7 colony forming unit (CFU)/ml. This cell suspension was then further diluted 10-fold (to 10^6 CFU/ml) by transferring the 2 ml cell suspension to 18 ml of MHB. Addition of 50 μl of this dilute cell suspension to 50 μl of growth medium yielded the desired cell density, namely about 5×10^4 CFU/well, or 5×10^5 CFU/ml.
The MIC value of oxacillin was determined using the broth microdilution procedure recommended by the National Committee of Clinical Laboratory Standards (NCCLS, 2000).
The MIC experiments were performed in duplicate in 96-well microtiter plates using MHB. A stock solution of 2.6 mg/0.5 ml was prepared in dimethylsulfoxide (DMSO). A total of 8 two-fold serial dilutions were made with DMSO. Initial oxacillin doses used were (μg/ml): 64, 32, 16, 8, 4, 2, 1, and 0.5. Doses were adjusted in the confirmatory experiment, if needed, in order to establish an actual MIC value.
(§1) To each well of a 96 well microtiter plate was added 47.5 μl of MHB. A volume of 2.5 μl of each dilution of oxacillin was then transferred to appropriate wells containing the medium. All wells, except the sterility control wells, were then inoculated with 50 μl of a diluted cell suspension to give a final volume of 100 μl and a final cell density of 5×10^4 CFU/well. The volume in the sterility control wells was adjusted to 100 μl with MHB. A sterile pipette tip was used to mix the contents of each well (one tip was used going from the low to the high concentration in the same column). The microtiter plates were covered with the lids and were placed in large Stratagene Big Blue plates (Cat. # 400041). Four large kimwipes moistened with tap water were placed near the edges of the Stratagene plates to prevent evaporation of the medium. The microtiter plates were incubated for at least 24 hours at 35° C. The plates were then evaluated for growth in each well. Controls included: medium sterility and negative control (medium and bacteria only).
The procedure used to determine the antimicrobial activity of the compounds of the present invention was identical to the broth microdilution procedure described above with the exception of the preparation of the stock solutions. Stock solution at concentration of 40.96 mg/0.5 ml was prepared in DMSO for each of the compounds. A total of 8 two-fold dilutions were then made in DMSO. A volume of 2.5 μl of each dilution was delivered to appropriate wells. The initial doses used were (μg/ml): 512, 256, 128, 64, 32, 16, 8, and 4.
(§2) A numerical code was used to evaluate the extent of growth as indicated below. • 0: absence of growth • 1: barely visible (faint) growth • 2: fair growth but less than the negative solvent control • 3: growth is equivalent to the negative solvent control.
(§3) The lowest dose at which no visible growth is observed was determined to be the MIC value.
MIC assays were performed with oxacillin and the four compounds. Each of the compounds was tested at the following 8 doses (μg/ml): 512, 256, 128, 64, 32, 16, 8, and 4. Oxacillin was tested at the following 8 doses (μg/ml): 64, 32, 16, 8, 4, 2, 1, and 0.5.

[2] = tested on: methicillin resistant S. aureus ATCC 33591 (MRSA-ATCC); test: Matrix system: oxacillin plus β-lactamase inhibitor, MRSA-ATCC; type: cell-based; conditions: for MIC of oxacillin: matrix study
Experimental: as §1, §2, §3
The effect of the four compounds of the present invention on oxacillin resistance of the MRSA strains was determined using a matrix system. The β-lactamase inhibitors were tested at 5 doses against up to eleven concentrations of oxacillin. […] A 96-well microtiter plate was used for the matrix system. The procedure was identical to that described above for the MIC determination, with the exception that both oxacillin and one each of the β-lactamase inhibitors was added, 2.5 μl each, to the wells prior to addition of the test organisms.
Matrix Study:Oxacillin and Compound FL201 with MRSA-ATCC
Matrix Study: Oxacillin and Compound Fl202 with MRSA-ATCC

O=C(OCc1ccccc1)c1cc(B(O)O)cc([N+](=O)[O-])c1 [Compound F1201]
0.5 µg/mL: MIC of oxacillin ([2]; with compound 4 μg/ml)
16 µg/mL: MIC of oxacillin ([2]; with compound 1 μg/ml)
1: extent of growth (numerical code) ([2]; oxacillin 0 μg/ml + compound 8 μg/ml) | extent of growth (numerical code) ([2]; oxacillin 0.064 μg/ml + compound 1 μg/ml) | extent of growth (numerical code) ([2]; oxacillin 0.064 μg/ml + compound 2 μg/ml) | extent of growth (numerical code) ([2]; oxacillin 0.064 μg/ml + compound 4 μg/ml) | extent of growth (numerical code) ([2]; oxacillin 0.125 μg/ml + compound 1 μg/ml) | extent of growth (numerical code) ([2]; oxacillin 0.125 μg/ml + compound 2 μg/ml) | extent of growth (numerical code) ([2]; oxacillin 0.125 μg/ml + compound 4 μg/ml) | extent of growth (numerical code) ([2]; oxacillin 0.25 μg/ml + compound 1 μg/ml) | extent of growth (numerical code) ([2]; oxacillin 0.25 μg/ml + compound 2 μg/ml) | extent of growth (numerical code) ([2]; oxacillin 0.25 μg/ml + compound 4 μg/ml) | extent of growth (numerical code) ([2]; oxacillin 0.5 μg/ml + compound 1 μg/ml) | extent of growth (numerical code) ([2]; oxacillin 0.5 μg/ml + compound 2 μg/ml) | extent of growth (numerical code) ([2]; oxacillin 1 μg/ml + compound 1 μg/ml) | extent of growth (numerical code) ([2]; oxacillin 1 μg/ml + compound 2 μg/ml) | extent of growth (numerical code) ([2]; oxacillin 2 μg/ml + compound 1 μg/ml) | extent of growth (numerical code) ([2]; oxacillin 4 μg/ml + compound 1 μg/ml) | extent of growth (numerical code) ([2]; oxacillin 8 μg/ml + compound 1 μg/ml)
3: extent of growth (numerical code) ([2]; oxacillin 0 μg/ml + compound 1 μg/ml) | extent of growth (numerical code) ([2]; oxacillin 0 μg/ml + compound 2 μg/ml)
<0.064 µg/mL: MIC of oxacillin ([2]; with compound 8 μg/ml)
2 µg/mL: MIC of oxacillin ([2]; with compound 2 μg/ml)
32 µg/mL: MIC [1]
2: extent of growth (numerical code) ([2]; oxacillin 0 μg/ml + compound 4 μg/ml)
0: extent of growth (numerical code) ([2]; oxacillin 0 μg/ml + compound 16 μg/ml) | extent of growth (numerical code) ([2]; oxacillin 0.064 μg/ml + compound 8 μg/ml) | extent of growth (numerical code) ([2]; oxacillin 0.064 μg/ml + compound 16 μg/ml) | extent of growth (numerical code) ([2]; oxacillin 0.125 μg/ml + compound 8 μg/ml) | extent of growth (numerical code) ([2]; oxacillin 0.125 μg/ml + compound 16 μg/ml) | extent of growth (numerical code) ([2]; oxacillin 0.25 μg/ml + compound 8 μg/ml) | extent of growth (numerical code) ([2]; oxacillin 0.25 μg/ml + compound 16 μg/ml) | extent of growth (numerical code) ([2]; oxacillin 0.5 μg/ml + compound 4 μg/ml) | extent of growth (numerical code) ([2]; oxacillin 0.5 μg/ml + compound 8 μg/ml) | extent of growth (numerical code) ([2]; oxacillin 0.5 μg/ml + compound 16 μg/ml) | extent of growth (numerical code) ([2]; oxacillin 1 μg/ml + compound 4 μg/ml) | extent of growth (numerical code) ([2]; oxacillin 1 μg/ml + compound 8 μg/ml) | extent of growth (numerical code) ([2]; oxacillin 1 μg/ml + compound 16 μg/ml) | extent of growth (numerical code) ([2]; oxacillin 2 μg/ml + compound 2 μg/ml) | extent of growth (numerical code) ([2]; oxacillin 2 μg/ml + compound 4 μg/ml) | extent of growth (numerical code) ([2]; oxacillin 2 μg/ml + compound 8 μg/ml) | extent of growth (numerical code) ([2]; oxacillin 2 μg/ml + compound 16 μg/ml) | extent of growth (numerical code) ([2]; oxacillin 4 μg/ml + compound 2 μg/ml) | extent of growth (numerical code) ([2]; oxacillin 4 μg/ml + compound 4 μg/ml) | extent of growth (numerical code) ([2]; oxacillin 4 μg/ml + compound 8 μg/ml) | extent of growth (numerical code) ([2]; oxacillin 4 μg/ml + compound 16 μg/ml) | extent of growth (numerical code) ([2]; oxacillin 8 μg/ml + compound 2 μg/ml) | extent of growth (numerical code) ([2]; oxacillin 8 μg/ml + compound 4 μg/ml) | extent of growth (numerical code) ([2]; oxacillin 8 μg/ml + compound 8 μg/ml) | extent of growth (numerical code) ([2]; oxacillin 8 μg/ml + compound 16 μg/ml) | extent of growth (numerical code) ([2]; oxacillin 16 μg/ml + compound 1 μg/ml) | extent of growth (numerical code) ([2]; oxacillin 16 μg/ml + compound 2 μg/ml) | extent of growth (numerical code) ([2]; oxacillin 16 μg/ml + compound 4 μg/ml) | extent of growth (numerical code) ([2]; oxacillin 16 μg/ml + compound 8 μg/ml) | extent of growth (numerical code) ([2]; oxacillin 16 μg/ml + compound 16 μg/ml) | extent of growth (numerical code) ([2]; oxacillin 32 μg/ml + compound 1 μg/ml) | extent of growth (numerical code) ([2]; oxacillin 32 μg/ml + compound 2 μg/ml) | extent of growth (numerical code) ([2]; oxacillin 32 μg/ml + compound 4 μg/ml) | extent of growth (numerical code) ([2]; oxacillin 32 μg/ml + compound 8 μg/ml) | extent of growth (numerical code) ([2]; oxacillin 32 μg/ml + compound 16 μg/ml) | extent of growth (numerical code) ([2]; oxacillin 64 μg/ml + compound 1 μg/ml) | extent of growth (numerical code) ([2]; oxacillin 64 μg/ml + compound 2 μg/ml) | extent of growth (numerical code) ([2]; oxacillin 64 μg/ml + compound 4 μg/ml) | extent of growth (numerical code) ([2]; oxacillin 64 μg/ml + compound 8 μg/ml) | extent of growth (numerical code) ([2]; oxacillin 64 μg/ml + compound 16 μg/ml)
